Experiments:
[1] = molecular target: Thromboxane A2 receptor (Homo sapiens) (UniProt P21731); experiment: Displacement of [3H]SQ29548 from human recombinant TP receptor expressed in HEK293 cells at 1 uM; format: cell-based
[2] = molecular target: Endothelin-1 receptor (Homo sapiens) (UniProt P25101); experiment: Displacement of [125I]endothelin-1 from human recombinant ETA receptor expressed in CHO cells at 1 uM; format: cell-based
Rattus norvegicus [3] = species: Rattus norvegicus; experiment: Displacement of [3H]batrachotoxinin from rat Na+ channel site 2 in cerebral cortex; format: tissue-based; conditions: concentration not given here
[4] = molecular target: 5-hydroxytryptamine receptor 5A (Homo sapiens) (UniProt P47898); experiment: Displacement of [3H]LSD from human recombinant 5-HT5A receptor expressed in CHO cells at 1 uM; format: cell-based
[5] = molecular target: Mu-type opioid receptor (Homo sapiens) (UniProt P35372); experiment: Displacement of [3H]DAMGO from human recombinant mu opioid receptor expressed in HEK293 cells at 1 uM; format: cell-based
[6] = molecular target: D(2) dopamine receptor (Homo sapiens) (UniProt P14416); experiment: Displacement of [3H]spiperone from human recombinant D2S receptor expressed in HEK293 cells at 1 uM; format: cell-based
[7] = molecular target: Histamine H2 receptor (Homo sapiens) (UniProt P25021); experiment: Displacement of [125I]APT from human recombinant H2 receptor expressed in CHO cells at 1 uM; format: cell-based
[8] = molecular target: D(1A) dopamine receptor (Homo sapiens) (UniProt P21728); experiment: Displacement of [3H]SCH23390 from human recombinant D1 receptor expressed in CHO cells at 1 uM; format: cell-based
[9] = molecular target: Muscarinic acetylcholine receptor M1 (Homo sapiens) (UniProt P11229); experiment: Displacement of [3H]pirenzepine from human recombinant muscarinic M1 receptor expressed in CHO cells at 1 uM; format: cell-based
Muscarinic acetylcholine receptor M1 (Homo sapiens), sequence (P11229 whole entry): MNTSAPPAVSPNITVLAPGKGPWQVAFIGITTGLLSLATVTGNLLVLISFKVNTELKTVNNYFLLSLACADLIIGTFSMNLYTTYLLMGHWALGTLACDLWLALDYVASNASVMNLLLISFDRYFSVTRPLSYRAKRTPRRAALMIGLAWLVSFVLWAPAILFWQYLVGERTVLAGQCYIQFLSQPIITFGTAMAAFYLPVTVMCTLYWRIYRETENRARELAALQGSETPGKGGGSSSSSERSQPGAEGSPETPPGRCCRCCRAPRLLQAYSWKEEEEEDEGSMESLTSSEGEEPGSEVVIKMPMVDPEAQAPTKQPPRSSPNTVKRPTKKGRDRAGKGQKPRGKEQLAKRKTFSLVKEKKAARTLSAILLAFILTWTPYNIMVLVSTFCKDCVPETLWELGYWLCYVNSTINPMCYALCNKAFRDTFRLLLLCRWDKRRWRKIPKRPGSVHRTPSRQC

[10] = molecular target: B2 bradykinin receptor (Homo sapiens) (UniProt P30411); experiment: Displacement of [3H]bradykinin from human recombinant B2 receptor expressed in CHO cells at 1 uM; format: cell-based
B2 bradykinin receptor (Homo sapiens), sequence (P30411 whole entry): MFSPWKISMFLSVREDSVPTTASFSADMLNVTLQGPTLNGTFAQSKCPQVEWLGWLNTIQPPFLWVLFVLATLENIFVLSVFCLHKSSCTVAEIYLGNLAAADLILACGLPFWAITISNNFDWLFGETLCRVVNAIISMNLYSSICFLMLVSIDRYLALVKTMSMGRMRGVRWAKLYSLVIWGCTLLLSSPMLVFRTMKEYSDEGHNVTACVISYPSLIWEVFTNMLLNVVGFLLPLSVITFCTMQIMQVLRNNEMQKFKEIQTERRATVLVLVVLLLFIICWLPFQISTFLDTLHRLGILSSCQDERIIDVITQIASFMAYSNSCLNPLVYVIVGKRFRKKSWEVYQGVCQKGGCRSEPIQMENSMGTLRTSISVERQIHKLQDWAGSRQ

CHO = experiment: Displacement of [3H]DADLE from human recombinant delta2 opioid receptor expressed in CHO cells at 1 uM; format: cell-based
[11] = molecular target: Galanin receptor type 2 (Homo sapiens) (UniProt O43603); experiment: Displacement of [125I]Galanin from human recombinant GAL2 receptor expressed in CHO cells at 1 uM; format: cell-based
Galanin receptor type 2 (Homo sapiens), sequence (O43603 whole entry): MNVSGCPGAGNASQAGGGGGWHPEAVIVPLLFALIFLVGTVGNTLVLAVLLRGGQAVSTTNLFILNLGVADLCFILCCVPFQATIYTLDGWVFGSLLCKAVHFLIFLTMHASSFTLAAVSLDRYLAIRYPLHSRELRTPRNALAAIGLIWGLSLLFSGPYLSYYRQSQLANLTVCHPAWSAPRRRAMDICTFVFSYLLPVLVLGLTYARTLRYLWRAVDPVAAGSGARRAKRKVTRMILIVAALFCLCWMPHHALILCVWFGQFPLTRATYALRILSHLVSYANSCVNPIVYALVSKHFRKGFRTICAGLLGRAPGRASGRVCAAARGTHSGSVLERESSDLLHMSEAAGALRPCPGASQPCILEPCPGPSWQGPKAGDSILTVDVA

[12] = molecular target: Muscarinic acetylcholine receptor M3 (Homo sapiens) (UniProt P20309); experiment: Displacement of [3H]4-DAMP from human recombinant muscarinic M3 receptor expressed in CHO cells at 1 uM; format: cell-based
[13] = molecular target: Beta-1 adrenergic receptor (Homo sapiens) (UniProt P08588); experiment: Displacement of [3H](-)CGP12177 from human recombinant beta1 receptor expressed in HEK293 cells at 1 uM; format: cell-based
Beta-1 adrenergic receptor (Homo sapiens), sequence (P08588 whole entry, looked up): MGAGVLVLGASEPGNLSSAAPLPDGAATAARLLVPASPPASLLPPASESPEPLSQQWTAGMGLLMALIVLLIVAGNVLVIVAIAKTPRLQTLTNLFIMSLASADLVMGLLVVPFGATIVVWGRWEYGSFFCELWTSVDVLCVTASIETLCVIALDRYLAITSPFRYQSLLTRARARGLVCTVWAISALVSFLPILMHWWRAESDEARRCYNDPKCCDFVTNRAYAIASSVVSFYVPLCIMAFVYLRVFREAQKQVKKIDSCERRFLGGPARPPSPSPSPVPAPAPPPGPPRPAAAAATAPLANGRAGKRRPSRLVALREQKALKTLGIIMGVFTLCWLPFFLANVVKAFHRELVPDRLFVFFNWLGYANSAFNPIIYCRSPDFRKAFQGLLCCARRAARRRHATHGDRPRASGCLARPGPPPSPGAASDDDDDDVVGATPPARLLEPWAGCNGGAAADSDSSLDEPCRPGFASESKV

[14] = molecular target: Sodium-dependent serotonin transporter (Homo sapiens) (UniProt P31645); experiment: Displacement of [3H]imipramine from human recombinant 5-HT transporter expressed in CHO cells at 1 uM; format: cell-based
[15] = molecular target: Beta-2 adrenergic receptor (Homo sapiens) (UniProt P07550); experiment: Displacement of [3H](-)CGP12177 from human recombinant beta2 receptor expressed in CHO cells at 1 uM; format: cell-based
[16] = molecular target: Vasopressin V1a receptor (Homo sapiens) (UniProt P37288); experiment: Displacement of [3H]AVP from human recombinant V1a receptor expressed in CHO cells at 1 uM; format: cell-based
[17] = molecular target: C-X-C chemokine receptor type 2 (Homo sapiens) (UniProt P25025); experiment: Displacement of [125I]IL-8 from human recombinant CXCR2 receptor expressed in HEK293 cells at 1 uM; format: cell-based
[18] = molecular target: Vasoactive intestinal polypeptide receptor 1 (Homo sapiens) (UniProt P32241); experiment: Displacement of [125I]VIP from human recombinant VPAC1 receptor expressed in CHO cells at 1 uM; format: cell-based
[19] = molecular target: Nociceptin receptor (Homo sapiens) (UniProt P41146); experiment: Displacement of [3H]Nociceptin from human recombinant ORL1 receptor expressed in HEK293 cells at 1 uM; format: cell-based
[20] = molecular target: Adenosine receptor A3 (Homo sapiens) (UniProt P0DMS8); experiment: Displacement of [3H]AB-MECA from human recombinant adenosine A3 receptor expressed in HEK293 cells at 1 uM; format: cell-based
Rattus norvegicus [21] = species: Rattus norvegicus; experiment: Displacement of [3H](-)D888 from rat L-type Ca2+ channel verapamil site in cerebral cortex; format: tissue-based; conditions: concentration not given here
[22] = molecular target: Substance-K receptor (Homo sapiens) (UniProt P21452); experiment: Displacement of [125I]NKA from human recombinant NK2 receptor expressed in CHO cells at 1 uM; format: cell-based
[23] = molecular target: 5-hydroxytryptamine receptor 3A (Homo sapiens) (UniProt P46098); experiment: Displacement of [3H]BRL43694 from human recombinant 5-HT3 receptor expressed in CHO cells at 1 uM; format: cell-based
[24] = molecular target: Neuromedin-K receptor (Homo sapiens) (UniProt P29371); experiment: Displacement of [3H]SR142801 from human recombinant NK3 receptor expressed in CHO cells at 1 uM; format: cell-based
[25] = molecular target: 5-hydroxytryptamine receptor 7 (Homo sapiens) (UniProt P34969); experiment: Displacement of [3H]LSD from human recombinant 5-HT7 receptor expressed in CHO cells at 1 uM; format: cell-based
5-hydroxytryptamine receptor 7 (Homo sapiens), sequence (P34969 whole entry): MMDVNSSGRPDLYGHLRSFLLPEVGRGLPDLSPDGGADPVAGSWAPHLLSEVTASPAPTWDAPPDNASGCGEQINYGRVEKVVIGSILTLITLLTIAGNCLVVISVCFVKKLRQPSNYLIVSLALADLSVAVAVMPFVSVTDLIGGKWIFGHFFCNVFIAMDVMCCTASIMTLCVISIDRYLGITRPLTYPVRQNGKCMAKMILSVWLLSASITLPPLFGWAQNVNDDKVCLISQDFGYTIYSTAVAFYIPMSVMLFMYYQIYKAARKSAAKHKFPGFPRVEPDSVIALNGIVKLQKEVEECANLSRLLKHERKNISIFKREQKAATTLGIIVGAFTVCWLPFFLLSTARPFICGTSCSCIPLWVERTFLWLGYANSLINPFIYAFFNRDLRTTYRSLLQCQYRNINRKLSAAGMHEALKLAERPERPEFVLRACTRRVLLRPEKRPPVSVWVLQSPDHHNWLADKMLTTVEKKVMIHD

Rattus norvegicus [26] = species: Rattus norvegicus; experiment: Displacement of [35S]TBPS from rat GABA gated chloride channel in cerebral cortex; format: tissue-based; conditions: concentration not given here
[27] = molecular target: 5-hydroxytryptamine receptor 1B (Rattus norvegicus) (UniProt P28564); experiment: Displacement of [125I]CYP from rat 5-HT1B receptor in cerebral cortex; format: tissue-based; conditions: concentration not given here
[28] = molecular target: Somatostatin receptor (Mus musculus) (UniProt P30935+O08858+P30875+P30873+P49660); experiment: Displacement of [125I]Tyr11-somatostatin-14 from mouse sst receptor in AtT20 cells; format: cell-based; conditions: concentration not given here
Somatostatin receptor (Mus musculus), sequence (P30935 whole entry): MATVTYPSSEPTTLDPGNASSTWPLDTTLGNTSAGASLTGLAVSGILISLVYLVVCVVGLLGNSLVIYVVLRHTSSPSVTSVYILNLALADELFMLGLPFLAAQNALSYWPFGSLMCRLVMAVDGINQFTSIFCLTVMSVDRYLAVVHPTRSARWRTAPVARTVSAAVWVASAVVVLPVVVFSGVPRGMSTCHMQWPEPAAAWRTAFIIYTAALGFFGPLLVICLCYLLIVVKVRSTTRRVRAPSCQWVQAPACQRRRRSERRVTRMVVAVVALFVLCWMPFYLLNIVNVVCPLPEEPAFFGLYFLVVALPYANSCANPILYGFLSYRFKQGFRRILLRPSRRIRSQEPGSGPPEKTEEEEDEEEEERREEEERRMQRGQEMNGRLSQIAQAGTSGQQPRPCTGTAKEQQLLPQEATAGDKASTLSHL
Somatostatin receptor (Mus musculus), sequence (O08858 whole entry): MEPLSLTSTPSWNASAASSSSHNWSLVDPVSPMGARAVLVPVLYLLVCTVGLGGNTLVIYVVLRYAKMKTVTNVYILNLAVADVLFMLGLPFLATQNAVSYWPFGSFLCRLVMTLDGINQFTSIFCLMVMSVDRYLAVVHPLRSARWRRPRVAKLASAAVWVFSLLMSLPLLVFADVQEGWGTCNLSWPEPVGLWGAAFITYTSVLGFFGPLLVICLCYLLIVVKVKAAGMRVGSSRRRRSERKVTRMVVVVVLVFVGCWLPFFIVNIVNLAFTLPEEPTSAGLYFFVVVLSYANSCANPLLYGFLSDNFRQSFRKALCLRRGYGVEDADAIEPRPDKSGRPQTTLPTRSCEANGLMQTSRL
Somatostatin receptor (Mus musculus), sequence (P30875 whole entry): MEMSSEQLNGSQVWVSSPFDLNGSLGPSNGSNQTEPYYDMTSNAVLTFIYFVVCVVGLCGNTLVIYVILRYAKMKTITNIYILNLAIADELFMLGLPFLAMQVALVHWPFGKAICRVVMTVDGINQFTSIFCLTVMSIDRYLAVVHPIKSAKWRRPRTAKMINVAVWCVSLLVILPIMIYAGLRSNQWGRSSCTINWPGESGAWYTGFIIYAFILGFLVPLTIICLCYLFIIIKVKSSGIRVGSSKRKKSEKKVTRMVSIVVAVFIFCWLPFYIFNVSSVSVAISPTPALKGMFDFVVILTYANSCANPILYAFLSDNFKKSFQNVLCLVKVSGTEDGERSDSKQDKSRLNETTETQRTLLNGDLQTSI
Somatostatin receptor (Mus musculus), sequence (P30873 whole entry): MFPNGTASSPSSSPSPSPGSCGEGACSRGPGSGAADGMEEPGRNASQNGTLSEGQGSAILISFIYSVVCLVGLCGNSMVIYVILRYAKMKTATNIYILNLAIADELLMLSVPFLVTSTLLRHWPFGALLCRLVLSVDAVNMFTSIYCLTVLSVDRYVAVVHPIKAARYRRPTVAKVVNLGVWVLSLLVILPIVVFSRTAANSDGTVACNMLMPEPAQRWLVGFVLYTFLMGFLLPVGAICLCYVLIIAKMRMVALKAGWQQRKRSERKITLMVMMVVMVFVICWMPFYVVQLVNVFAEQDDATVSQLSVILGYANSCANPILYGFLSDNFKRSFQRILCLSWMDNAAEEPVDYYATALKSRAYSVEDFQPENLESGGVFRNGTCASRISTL
Somatostatin receptor (Mus musculus), sequence (P49660 with tags, fused parts or gaps): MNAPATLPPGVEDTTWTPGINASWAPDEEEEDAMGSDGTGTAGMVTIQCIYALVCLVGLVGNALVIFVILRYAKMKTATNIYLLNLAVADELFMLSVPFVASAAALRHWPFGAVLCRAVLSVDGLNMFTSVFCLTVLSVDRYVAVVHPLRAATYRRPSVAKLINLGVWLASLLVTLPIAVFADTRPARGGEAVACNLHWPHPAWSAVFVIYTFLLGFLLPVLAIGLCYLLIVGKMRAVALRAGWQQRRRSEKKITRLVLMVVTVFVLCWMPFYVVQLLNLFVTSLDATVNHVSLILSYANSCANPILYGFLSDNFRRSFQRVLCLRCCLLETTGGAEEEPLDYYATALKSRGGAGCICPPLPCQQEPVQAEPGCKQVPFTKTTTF

[29] = molecular target: T1, Fatty-acid amide hydrolase 1 (Mus musculus, UniProt O08914); experiment: Inhibition of FAAH in mouse brain homogenate using [3Hethanolamine]AEA as substrate incubated for 20 mins prior to substrate addition measured after 15 mins by beta counting analysis; format: tissue-based
T1 sequence (O08914 whole entry): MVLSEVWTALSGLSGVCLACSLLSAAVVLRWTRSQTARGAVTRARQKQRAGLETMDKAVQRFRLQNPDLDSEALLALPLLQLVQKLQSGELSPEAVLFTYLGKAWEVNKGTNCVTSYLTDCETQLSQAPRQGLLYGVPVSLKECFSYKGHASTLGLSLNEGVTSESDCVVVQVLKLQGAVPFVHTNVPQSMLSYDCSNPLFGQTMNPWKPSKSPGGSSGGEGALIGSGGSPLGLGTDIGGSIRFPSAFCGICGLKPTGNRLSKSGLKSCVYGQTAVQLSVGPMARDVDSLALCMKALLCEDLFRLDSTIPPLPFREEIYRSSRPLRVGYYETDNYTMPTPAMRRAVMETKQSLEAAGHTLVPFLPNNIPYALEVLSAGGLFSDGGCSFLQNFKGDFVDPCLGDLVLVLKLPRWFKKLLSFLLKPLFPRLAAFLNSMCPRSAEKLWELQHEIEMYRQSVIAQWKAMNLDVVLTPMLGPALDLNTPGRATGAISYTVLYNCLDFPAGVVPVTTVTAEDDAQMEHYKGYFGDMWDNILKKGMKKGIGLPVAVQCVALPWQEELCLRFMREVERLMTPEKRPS

Endothelin-1 receptor (Homo sapiens), sequence (P25101 whole entry): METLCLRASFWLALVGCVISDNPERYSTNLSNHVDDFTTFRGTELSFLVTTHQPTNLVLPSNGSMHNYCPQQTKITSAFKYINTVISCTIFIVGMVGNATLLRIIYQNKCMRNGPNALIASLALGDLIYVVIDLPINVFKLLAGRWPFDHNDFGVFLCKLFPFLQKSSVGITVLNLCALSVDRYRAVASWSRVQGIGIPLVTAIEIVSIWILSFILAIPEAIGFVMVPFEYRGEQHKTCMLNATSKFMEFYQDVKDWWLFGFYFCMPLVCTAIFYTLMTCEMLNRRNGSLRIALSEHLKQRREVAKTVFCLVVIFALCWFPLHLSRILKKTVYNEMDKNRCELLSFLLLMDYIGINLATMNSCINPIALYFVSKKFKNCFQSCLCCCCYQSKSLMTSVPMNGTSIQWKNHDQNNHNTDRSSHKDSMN
Thromboxane A2 receptor (Homo sapiens), sequence (P21731 whole entry): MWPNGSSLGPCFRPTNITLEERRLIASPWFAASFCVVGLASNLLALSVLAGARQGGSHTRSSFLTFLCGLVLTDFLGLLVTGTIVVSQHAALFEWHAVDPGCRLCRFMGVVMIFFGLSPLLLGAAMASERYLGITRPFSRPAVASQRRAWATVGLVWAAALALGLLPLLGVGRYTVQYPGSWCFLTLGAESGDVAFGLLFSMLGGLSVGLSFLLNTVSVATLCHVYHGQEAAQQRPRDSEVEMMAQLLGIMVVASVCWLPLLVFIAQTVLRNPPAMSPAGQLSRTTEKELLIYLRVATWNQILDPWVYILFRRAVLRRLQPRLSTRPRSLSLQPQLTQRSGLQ

SMILES: CCCCCCCOc1ccc(NC(=O)Oc2cccc(N3CCNCC3)c2)cc1
- inhibition [1]: 1%
- inhibition [2]: 14%
- inhibition (Rattus norvegicus [3]): 32%
- inhibition [4]: 27%
- inhibition [5]: 77%
- inhibition [6]: 9%
- inhibition [7]: 27%
- inhibition [8]: 70%
- inhibition [9]: 28%
- inhibition [10]: -5%
- inhibition (CHO): 61%
- inhibition [11]: -10%
- inhibition [12]: 35%
- inhibition [13]: 66%
- inhibition [14]: 36%
- inhibition [15]: 19%
- inhibition [16]: 17%
- inhibition [17]: -5%
- inhibition [18]: -1%
- inhibition [19]: 7%
- inhibition [20]: 4%
- inhibition (Rattus norvegicus [21]): 30%
- inhibition [22]: -10%
- inhibition [23]: 7%
- inhibition [24]: -7%
- inhibition [25]: 48%
- inhibition (Rattus norvegicus [26]): 2%
- inhibition [27]: 96%
- inhibition [28]: -2%
- Ki [29]: > 0.5 µM

Source: ChEMBL document CHEMBL2321687, “Identification of a novel arylpiperazine scaffold for fatty acid amide hydrolase inhibition with improved drug disposition properties” (Bioorg Med Chem Lett, 2013)
